In ChEMBL document CHEMBL1150030, “Benzolactam growth hormone secretagogues: replacements for the 2-tetrazole moiety of L-692,429” (1994):

species: Rattus norvegicus; assay: In vitro effective dose for the growth hormone(GH) release in rat pituitary cells; type: functional; conditions: Pituitary gland cell, read-out: ED50 (the source's name)

| SMILES | EC50 [nM] |
| --- | --- |
| CC(C)(N)CC(=O)N[C@@H]1CCc2ccccc2N(Cc2ccc(-c3ccccc3-c3nnnn3CC(=O)O)cc2)C1=O | 1000 |
| CC(O)Cn1nnnc1-c1ccccc1-c1ccc(CN2C(=O)[C@H](NC(=O)CC(C)(C)N)CCc3ccccc32)cc1 (some centres not stated) | 50 |
| CC(C)(N)CC(=O)N[C@@H]1CCc2ccccc2N(Cc2ccc(-c3ccccc3-c3nn[nH]n3)cc2)C1=O | 60 |
| CC(C)(N)CC(=O)N[C@@H]1CCc2ccccc2N(Cc2ccc(-c3ccccc3-c3nnnn3Cc3ccccc3)cc2)C1=O | 700 |
| CC(C)(N)CC(=O)N[C@@H]1CCc2ccccc2N(Cc2ccc(-c3ccccc3C#N)cc2)C1=O (racemic) | 5000 |
| CC(C)(N)CC(=O)N[C@@H]1CCc2ccccc2N(Cc2ccc(-c3ccccc3S(=O)(=O)NC(=O)c3ccccc3)cc2)C1=O | 3000 |
| CC(C)(N)CC(=O)N[C@@H]1CCc2ccccc2N(Cc2ccc(-c3ccccc3C(=O)O)cc2)C1=O | 3000 |
| Cn1nnc(-c2ccccc2-c2ccc(CN3C(=O)[C@H](NC(=O)CC(C)(C)N)CCc4ccccc43)cc2)n1 | 300 |
| CC(C)(N)CC(=O)N[C@@H]1CCc2ccccc2N(Cc2ccc(-c3ccccc3-c3nnn(Cc4ccccc4)n3)cc2)C1=O | 1000 |
| COC(=O)c1ccccc1-c1ccc(CN2C(=O)[C@H](NC(=O)CC(C)(C)N)CCc3ccccc32)cc1 (racemic) | 2000 |
| CC(C)(N)CC(=O)N[C@@H]1CCc2ccccc2N(Cc2ccc(-c3ccccc3-c3nnn(CC(=O)O)n3)cc2)C1=O | 200 |
| Cn1nnnc1-c1ccccc1-c1ccc(CN2C(=O)[C@H](NC(=O)CC(C)(C)N)CCc3ccccc32)cc1 | 500 |
| CC(C)(N)CC(=O)N[C@@H]1CCc2ccccc2N(Cc2ccc(-c3ccccc3S(N)(=O)=O)cc2)C1=O | 3000 |
| CC(C)(N)CC(=O)N[C@@H]1CCc2ccccc2N(Cc2ccc(-c3ccccc3S(=O)(=O)NC(C)(C)C)cc2)C1=O | 4000 |
| CC(O)Cn1nnc(-c2ccccc2-c2ccc(CN3C(=O)[C@H](NC(=O)CC(C)(C)N)CCc4ccccc43)cc2)n1 (some centres not stated) | 50 |
| CC(C)(N)CC(=O)N[C@@H]1CCc2ccccc2N(Cc2ccc(-c3ccccc3C(N)=O)cc2)C1=O | 80 |
| Cc1ccccc1-c1ccc(CN2C(=O)[C@H](NC(=O)CC(C)(C)N)CCc3ccccc32)cc1 | 1000 |
